Source: the supplement of paper PMC10307832

How the values were obtained:
Test in all cases: relative viability (nuclei count vs DMSO), 5 days (fraction); higher = more cells survive
TPCA-1 + Crizotinib = compound: C1=CC(=CC=C1C2=CC(=C(S2)NC(=O)N)C(=O)N)F [TPCA-1] + C[C@@H](Oc1cc(-c2cnn(C3CCNCC3)c2)cnc1N)c1c(Cl)ccc(F)c1Cl [Crizotinib] (partner 1 µM)
Outline: (§1)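 Relative viability was taken as the ratio of nuclei in treated wells to nuclei in vehicle wells. Lung cancer cell lines in 1536-well plates received compounds by pin tool one day after seeding, either one drug alone or a fixed anchor-drug dose plus five library-drug doses (not always all listed) in √10 steps. Nuclei were counted on 4× images after 5 days of treatment, and values are medians of duplicate plates.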

[1] = compound: C1/C(=C\C2=CC=CS2)/C(=O)/C(=C/C3=CC=CS3)/C1 + N=C(N)NC(=N)NCCc1ccccc1 [Phenformin] (partner 250 µM)
Outline: as §1

[2] = compound: C1/C(=C\C2=CC=CS2)/C(=O)/C(=C/C3=CC=CS3)/C1 + CC(=O)c1c(C)c2cnc(Nc3ccc(N4CCNCC4)cn3)nc2n(C2CCCC2)c1=O [Palbociclib] (partner 0.5 µM)
Outline: as §1

[3] = compound: C[C@]12O[C@H](C[C@]1(O)CO)n1c3ccccc3c3c4c(c5c6ccccc6n2c5c31)CNC4=O [Lestaurtinib] + CC(C)C[C@H](NC(=O)[C@H](Cc1ccccc1)NC(=O)c1cnccn1)B(O)O [Bortezomib] (partner 0.002 µM)
Outline: as §1

Row | Cell Line | relative viability (TPCA-1 + Crizotinib; first compound 0.04 µM) | relative viability (TPCA-1 + Crizotinib; first compound 0.1265 µM) | relative viability (TPCA-1 + Crizotinib; first compound 0.4 µM) | relative viability (TPCA-1 + Crizotinib; first compound 1.265 µM) | relative viability (TPCA-1 + Crizotinib; first compound 4 µM) | relative viability ([1]; first compound 0.2 µM) | relative viability ([1]; first compound 0.6325 µM) | relative viability ([1]; first compound 2 µM) | relative viability ([1]; first compound 6.325 µM) | relative viability ([1]; first compound 20 µM) | relative viability ([2]; first compound 0.2 µM) | relative viability ([2]; first compound 0.6325 µM) | relative viability ([2]; first compound 2 µM) | relative viability ([2]; first compound 6.325 µM) | relative viability ([2]; first compound 20 µM) | relative viability ([3]; first compound 0.005 µM) | relative viability ([3]; first compound 0.01581 µM) | relative viability ([3]; first compound 0.05 µM) | relative viability ([3]; first compound 0.1581 µM) | relative viability ([3]; first compound 0.5 µM)
1 | NCI-H838 | 0.837 | 0.752 | 0.806 | 0.698 | 0.471 | 0.689 | 0.541 | 0.687 | 0.65 | 0.519 | 0.225 | 0.212 | 0.211 | 0.203 | 0.194 | 0.79 | 0.783 | 0.615 | 0.472 | 0.148
2 | A549 | 0.898 | 0.748 | 0.773 | 0.522 | 0.331 | 0.208 | 0.196 | 0.154 |  | 0.17 |  |  |  |  |  |  |  |  |  | 
3 | NCI-H2342 |  |  |  |  |  | 0.535 | 0.63 | 0.689 | 0.524 | 0.519 | 0.511 | 0.568 | 0.531 | 0.482 | 0.516 |  |  |  |  | 
4 | NCI-H1623 |  |  |  |  |  | 0.644 | 0.577 | 0.502 | 0.599 | 0.59 |  |  |  |  |  |  |  |  |  | 
5 | SK-LU-1 | 0.862 | 0.667 | 1.07 | 0.675 | 0.556 | 0.634 | 0.56 | 0.672 | 0.473 | 0.486 | 0.39 | 0.443 | 0.427 | 0.357 | 0.399 | 0.975 | 1.26 | 0.763 | 0.673 | 0.362
6 | NCI-H2085 | 0.921 | 0.793 | 0.872 | 0.765 | 0.78 | 0.81 | 0.791 | 0.839 | 0.619 | 0.644 | 0.482 | 0.5 | 0.484 | 0.46 | 0.495 | 1 | 0.969 | 0.973 | 1.33 | 0.803
7 | Calu-6 | 0.861 | 0.789 | 0.767 | 0.669 | 0.373 |  |  |  |  |  |  |  |  |  |  | 1.07 | 0.875 | 0.744 | 0.562 | 0.184
8 | NCI-H1563 | 0.945 | 0.954 | 0.89 | 0.953 | 0.811 | 0.672 | 0.66 | 0.655 | 0.614 | 0.593 |  |  |  |  |  | 0.938 | 0.836 | 0.741 | 0.957 | 0.705
9 | NCI-H596 | 1.01 | 1.1 | 0.522 | 0.972 | 1.01 | 0.711 | 0.799 | 0.846 | 0.78 | 0.857 |  |  |  |  |  | 1.16 | 1.28 | 0.969 | 1.29 | 1.06
